Test results: ChEMBL document CHEMBL5346933, “Design and synthesis of novel arylurea derivatives of aryloxy(1-phenylpropyl) alicyclic diamines with antimicrobial activity against multidrug-resistant Gram-positive bacteria” (Eur J Med Chem, 2023)
In brackets after ≈: the same amount, converted by molar mass.

Tests used:
Staphylococcus aureus [1] = test: Bactericidal activity against biofilm producer Staphylococcus aureus RN450 assessed as reduction in colony forming units incubated for 18 hrs in broth followed by culturing on agar plate for 24 hrs; assay type: functional; details: time 42 hrs, read-out: MBC99.9
Cell membrane [2] = test: Induction of cell membrane depolarization in Staphylococcus aureus Newman assessed as bacterial cells with depolarized membrane potential at 2XMIC incubated for 25 to 30 mins by DiOC2(3) probe based flow cytometry (reference value: 1.6%); assay type: subcellular; details: time 25-30 min
Streptococcus pneumoniae [3] = test: Antibacterial activity against macrolides-lincosamides and streptogramins B-resistant Streptococcus pneumoniae O/19/4199 assessed as inhibition of bacterial growth incubated for 18 hrs by broth microdilution method; assay type: functional
Klebsiella pneumoniae = test: Antibacterial activity against Klebsiella pneumoniae ATCC 700603 assessed as inhibition of bacterial growth incubated for 18 hrs by broth microdilution method; assay type: functional
[4] = system: Staphylococcus epidermidis; test: Bactericidal activity against methicillin- susceptible Staphylococcus epidermidis ATCC 12228 assessed as reduction in colony forming units incubated for 18 hrs in broth followed by culturing on agar plate for 24 hrs; assay type: functional; details: time 42 hrs, read-out: MBC99.9
[5] = Cytotoxicity against human BJ cells assessed as reduction in cell viability incubated for 24 hrs by MTT assay; assay type: toxicity, cell-based
Escherichia coli = test: Antibacterial activity against Escherichia coli ATCC 25922 assessed as inhibition of bacterial growth incubated for 18 hrs by broth microdilution method; assay type: functional
[6] = system: Staphylococcus epidermidis; test: Ratio of MBC to MIC for biofilm producer Staphylococcus epidermidis ATCC 35984; assay type: functional
Staphylococcus aureus [7] = test: Ratio of MBC to MIC for methicillin-susceptible Staphylococcus aureus ATCC 25923; assay type: functional
Cell membrane [8] = test: Induction of cell membrane depolarization in vancomycin-resistant Enterococcus faecium clinical strain assessed as bacterial cells with polarized membrane potential at 4 times MIC incubated for 25 to 30 mins by DiOC2(3) probe based flow cytometry (reference value: 96.8%); assay type: subcellular; details: time 25-30 min
Cell membrane [9] = test: Induction of cell membrane depolarization in Staphylococcus aureus Newman assessed as bacterial cells with depolarized membrane potential at MIC incubated for 25 to 30 mins by DiOC2(3) probe based flow cytometry (reference value: 1.6%); assay type: subcellular; details: time 25-30 min
Staphylococcus aureus [10] = test: Antibacterial activity against biofilm producer Staphylococcus aureus RN450 assessed as inhibition of bacterial growth incubated for 18 hrs by broth microdilution method; assay type: functional
[11] = Metabolic stability in rat liver microsomes assessed as parent compound remaining at 0.4 mg/ml preincubated for 10 mins followed by NADPH-regenerating system addition for 60 mins by UPLC-MS analysis; assay type: ADME, Microsome; details: time 70 min, read-out: Stability
[12] = Cytotoxicity against human MRC5 cells assessed as reduction in cell viability incubated for 24 hrs by MTT assay; assay type: toxicity, cell-based
Staphylococcus aureus [13] = test: Bactericidal activity against methicillin-susceptible Staphylococcus aureus ATCC 25923 assessed as reduction in colony forming units incubated for 18 hrs in broth followed by culturing on agar plate for 24 hrs; assay type: functional; details: time 42 hrs, read-out: MBC99.9
[14] = system: Staphylococcus epidermidis; test: Antibacterial activity against methicillin-susceptible Staphylococcus epidermidis ATCC 12228 assessed as inhibition of bacterial growth incubated for 18 hrs by broth microdilution method; assay type: functional
Cell membrane [15] = test: Induction of cell membrane depolarization in Staphylococcus aureus Newman assessed as bacterial cells with depolarized membrane potential at 4 times MIC incubated for 25 to 30 mins by DiOC2(3) probe based flow cytometry (reference value: 1.6%); assay type: subcellular; details: time 25-30 min
Staphylococcus aureus [16] = test: Bactericidal activity against vancomycin-intermediate Staphylococcus aureus ATCC 700699 assessed as reduction in colony forming units incubated for 18 hrs in broth followed by culturing on agar plate for 24 hrs; assay type: functional; details: time 42 hrs, read-out: MBC99.9
[17] = system: Staphylococcus epidermidis; test: Ratio of MBC to MIC for methicillin-susceptible Staphylococcus epidermidis ATCC 12228; assay type: functional
Staphylococcus aureus [18] = test: Ratio of MBC to MIC for biofilm producer Staphylococcus aureus RN450; assay type: functional
Cell membrane [19] = test: Induction of cell membrane depolarization in Staphylococcus aureus Newman assessed as bacterial cells with polarized membrane potential at 4 times MIC incubated for 25 to 30 mins by DiOC2(3) probe based flow cytometry (reference value: 94.3%); assay type: subcellular; details: time 25-30 min
Cell membrane [20] = test: Induction of cell membrane depolarization in methicillin-resistant Staphylococcus aureus 19449 assessed as ratio of red to green fluorescence intensity at MIC incubated for 25 to 30 mins by DiOC2(3) probe based flow cytometry; assay type: subcellular; details: time 25-30 min
Cell membrane [21] = test: Induction of cell membrane depolarization in vancomycin-resistant Enterococcus faecium clinical strain assessed as bacterial cells with depolarized membrane potential at 4 times MIC incubated for 25 to 30 mins by DiOC2(3) probe based flow cytometry (reference value: 0.8%); assay type: subcellular; details: time 25-30 min
Streptococcus pneumoniae [22] = test: Antibacterial activity against Oxacillin-resistant Streptococcus pneumoniae O/19/4541 assessed as inhibition of bacterial growth incubated for 18 hrs by broth microdilution method; assay type: functional
Pseudomonas aeruginosa = test: Antibacterial activity against Pseudomonas aeruginosa ATCC 27853 assessed as inhibition of bacterial growth incubated for 18 hrs by broth microdilution method; assay type: functional
Staphylococcus aureus [23] = test: Antibacterial activity against vancomycin-intermediate Staphylococcus aureus ATCC 700699 assessed as inhibition of bacterial growth incubated for 18 hrs by broth microdilution method; assay type: functional
Cell membrane [24] = test: Induction of cell membrane depolarization in vancomycin-resistant Enterococcus faecium clinical strain assessed as bacterial cells with depolarized membrane potential at 2XMIC incubated for 25 to 30 mins by DiOC2(3) probe based flow cytometry (reference value: 0.8%); assay type: subcellular; details: time 25-30 min
[25] = system: Staphylococcus epidermidis; test: Bactericidal activity against linezolid-resistant Staphylococcus epidermidis NIL 4399/19 assessed as reduction in colony forming units incubated for 18 hrs in broth followed by culturing on agar plate for 24 hrs; assay type: functional; details: time 42 hrs, read-out: MBC99.9
Enterococcus faecium = test: Bactericidal activity against vancomycin-resistant Enterococcus faecium clinical strain assessed as reduction in colony forming units incubated for 18 hrs in broth followed by culturing on agar plate for 24 hrs; assay type: functional; details: time 42 hrs, read-out: MBC99.9
Staphylococcus aureus [26] = test: Bactericidal activity against vancomycin-intermediate Staphylococcus aureus ATCC 700699 assessed as log reduction of bacterial colony forming units at 4 times MIC incubated for 8 hrs in broth followed by culturing on agar plate for 24 hrs by time-killing assay; assay type: functional; details: time 32 hrs
Cell membrane [27] = test: Induction of cell membrane depolarization in Staphylococcus aureus Newman assessed as bacterial cells with polarized membrane potential at MIC incubated for 25 to 30 mins by DiOC2(3) probe based flow cytometry (reference value: 94.3%); assay type: subcellular; details: time 25-30 min

## O=C(Nc1cccc(Cl)c1)NC1CCN(CCC(Oc2cccc(C(F)(F)F)c2)c2ccccc2)CC1 (racemic)
Staphylococcus aureus [1]
  MBC: 6.25 µg/mL (≈ 11.7 µM)
Cell membrane [2]
  Activity: 89.3%
Streptococcus pneumoniae [3]
  MIC: 6.25 µg/mL (≈ 11.7 µM)
Klebsiella pneumoniae
  MIC: > 12.5 µg/mL
[4]
  MBC: 3.12 µg/mL (≈ 5.87 µM)
[5]
  IC50 at 24 h: > 25 µg/mL
Escherichia coli
  MIC: > 12.5 µg/mL
[6]
  Ratio: 4
Staphylococcus aureus [7]
  Ratio: 4
Cell membrane [8]
  Activity: 1.5%
Cell membrane [9]
  Activity: 89%
Staphylococcus aureus [10]
  MIC: 1.56 µg/mL (≈ 2.93 µM)
[11]
  remaining at 1 h: 95%
[12]
  IC50 at 24 h: 12.5 µg/mL (≈ 23.5 µM)
Staphylococcus aureus [13]
  MBC: 12.5 µg/mL (≈ 23.5 µM)
[14]
  MIC: 3.12 µg/mL (≈ 5.87 µM)
Cell membrane [15]
  Activity: 89.8%
Staphylococcus aureus [16]
  MBC: 12.5 µg/mL (≈ 23.5 µM)
[17]
  Ratio: 1
Staphylococcus aureus [18]
  Ratio: 4
Cell membrane [19]
  Activity: 0%
Cell membrane [20]
  Ratio: 0.53
Cell membrane [21]
  Activity: 89.3%
Streptococcus pneumoniae [22]
  MIC: 12.5 µg/mL (≈ 23.5 µM)
Pseudomonas aeruginosa
  MIC: > 12.5 µg/mL
Staphylococcus aureus [23]
  MIC: 3.12 µg/mL (≈ 5.87 µM)
Cell membrane [24]
  Activity: 92.7%
[25]
  MBC: 6.25 µg/mL (≈ 11.7 µM)
Enterococcus faecium
  MBC: 6.25 µg/mL (≈ 11.7 µM)
Staphylococcus aureus [26]
  Activity: 2 log10CFU/ml
Cell membrane [27]
  Activity: 0.6%
